According to patent US9820943B2, “Micronized amoxicillin” (DSM SINOCHEM PHARMACEUTICALS NETHERLANDS B.V., priority 2013, dated 2017):
Each block holds one compound with its values, some of them ahead of it.

Assays:
Type in all cases: physicochemical
[1] = Contact angle by sessile drop method (water); settings: ambient conditions, trihydrate
Protocol: Contact angles of amoxicillin trihydrate powder samples were measured by the sessile drop method using an Drop Shape Analyzer instrument (FTA 1000, First Ten Angstrom, Virginia, USA). Powder samples were mounted on double sided adhesive tape adhered to a glass slide and excess powder was removed by tapping the slide. A drop of probe liquid (water) was dispersed onto the sample surface and video images were captured by the FTA image analyzer. The contact angle was calculated by the instrument by fitting a mathematical expression to the shape of the drop followed by calculating the slope of the tangent to the drop at the liquid-solid-vapor interface line. The surface tension of ultrapure ELGA laboratory water was measured to be 73±0.5 mN·m^−1 at 25° C. All measurements were performed in air under ambient conditions and an average of four measurements was reported in the below Examples.
(§1) Parameters operated were: • Augar Speed: 5-90 rpm • Primary Air Pressure: 2-8 kg·cm^−2 • Secondary Air Pressure: 4-10 kg·cm^−2 The surface area (in triplicate), average particle size and contact angle (in quadruplicate) were determined as outlined in the General section. The purity of the amoxicillin trihydrate samples was 99.4±0.3% and were void of dichloromethane, isopropanol, pivalic acid and triethyl amine.

[2] = Specific powder surface area by nitrogen gas sorption (BET); settings: triplicate, trihydrate
Protocol: Specific powder surface area was determined using nitrogen gas sorption (Smartsorb, Smart Instruments, Mumbai, India). Prior to measurements, samples were regenerated by degassing to remove moisture and contamination. The regenerated sample was dipped in liquid nitrogen and the quantity of the adsorbed gas was measured using a thermal conductivity detector and subsequently integrated using an electronic circuit in terms of counts. The instrument was calibrated by injecting a known quantity of nitrogen. The measured parameters were subsequently used to calculate the surface area of the sample by employing the adsorption theories of Brunauer, Emmett and Teller (BET).
as §1

[3] = Powder dissolution, USP/NF paddle method with HPLC analysis; settings: 500 mg in 900 mL water, 37 °C, 75 rpm; for Amoxicillin released in solution Mean: mean of 3; for Amoxicillin released in solution #1: replicate #1; for Amoxicillin released in solution #2: replicate #2; for Amoxicillin released in solution #3: replicate #3
Protocol: Dissolution analysis of amoxicillin trihydrate powder samples was carried out using the USP/NF paddle method at a rotational speed of 75 rpm. Ultrapure ELGA laboratory water (900 mL) was used as dissolution medium. Media were equilibrated to 37.0±0.5° C. prior to dissolution. Amoxicillin trihydrate sample powder (500 mg) was directly added to the dissolution apparatus (Electrolab USP-24, India). Samples were collected at 0, 1, 3, 5, 10, 15, 30, 60 and 90 min, filtered through 0.2 μm filters and analyzed by HPLC. Dissolution profiles were constructed by plotting the percentage amoxicillin released against time.
The HPLC system (Shimadzu Corporation, Kyoto, Japan) comprised of an SCL-10A VP system controller, LC-10AT VP liquid chromatograph, FCV-10AL VP flow control valve, DGU-14A degasser, SIL-10AD VP auto-injector, CTO-10AS VP column oven, SPD-M20A prominence diode array (PDA) detector and data acquisition Class-VP 6.10 software. The HPLC method was adopted from the United States Pharmacopoeia (USP). The method was validated for linearity, precision, accuracy and intra- and inter-day variability. The mobile phase was 50 mM monobasic potassium phosphate:methanol (96:4, v/v, pH 5.0). All analyses were carried out using Lichrospher® 100 RP-18e analytical column (5 μm, Merck KGaA, Darmstadt, Germany) under isocratic conditions at a flow rate of 1.0 mL·min^−1 at 25° C. with 20 μL injection volume. Effluent was monitored at a wavelength of 230 nm. Samples for calibration curve generation were prepared in 50 mM monobasic potassium phosphate:methanol 1:1 (v/v) proportion at a concentration range of 1 to 600 μg·mL^−1.
The three non-micronized (i.e. entries 1-3 of Table 1) and micronized (i.e. entries 4-6 of Table 1) amoxicillin trihydrate samples of Example 1 were subjected to a powder dissolution test (in triplicate) as outlined in the General section.

[4] = Particle size distribution by laser diffraction (Malvern); settings: trihydrate
Protocol: Particle size distribution values D10, D50, D90 and D100 were determined using laser diffraction applying Malvern equipment. A suitable apparatus for determining D10, D50, D90 and D100 is a Malvern particle sizer 2600 C or a Malvern Zeta Sizer.
as §1

- Contact Angle Mean ± SD (n = 4) [1]: 110.68 ± 0.23
- Surface Area Mean ± SD (n = 3) [2]: 1.78 ± 0.03 m^2 · g^−1
- Amoxicillin released in solution Mean ([3]; 0 min): 0%
- Amoxicillin released in solution #1 ([3]; 0 min): 0%
- Amoxicillin released in solution #2 ([3]; 0 min): 0%
- Amoxicillin released in solution #3 ([3]; 0 min): 0%
- Amoxicillin released in solution Mean ([3]; 1 min, trihydrate): 56.64%
- Amoxicillin released in solution #1 ([3]; 1 min, trihydrate): 54.49%
- Amoxicillin released in solution #2 ([3]; 1 min, trihydrate): 57.74%
- Amoxicillin released in solution #3 ([3]; 1 min, trihydrate): 57.67%
- Amoxicillin released in solution Mean ([3]; 3 min, trihydrate): 77.11%
- Amoxicillin released in solution #1 ([3]; 3 min, trihydrate): 76.32%
- Amoxicillin released in solution #2 ([3]; 3 min, trihydrate): 76.89%
- Amoxicillin released in solution #3 ([3]; 3 min, trihydrate): 78.12%
- Amoxicillin released in solution Mean ([3]; 5 min, trihydrate): 84.17%
- Amoxicillin released in solution #1 ([3]; 5 min, trihydrate): 85.25%
- Amoxicillin released in solution #2 ([3]; 5 min, trihydrate): 82.78%
- Amoxicillin released in solution #3 ([3]; 5 min, trihydrate): 84.47%
- Amoxicillin released in solution Mean ([3]; 10 min, trihydrate): 87.43%
- Amoxicillin released in solution #1 ([3]; 10 min, trihydrate): 88.15%
- Amoxicillin released in solution #2 ([3]; 10 min, trihydrate): 86.80%
- Amoxicillin released in solution #3 ([3]; 10 min, trihydrate): 87.34%
- Amoxicillin released in solution Mean ([3]; 15 min, trihydrate): 89.71%
- Amoxicillin released in solution #1 ([3]; 15 min, trihydrate): 90.61%
- Amoxicillin released in solution #2 ([3]; 15 min, trihydrate): 89.05%
- Amoxicillin released in solution #3 ([3]; 15 min, trihydrate): 89.49%
- Amoxicillin released in solution Mean ([3]; 30 min, trihydrate): 93.77%
- Amoxicillin released in solution #1 ([3]; 30 min, trihydrate): 93.27%
- Amoxicillin released in solution #2 ([3]; 30 min, trihydrate): 95.75%
- Amoxicillin released in solution #3 ([3]; 30 min, trihydrate): 91.85%
- Amoxicillin released in solution Mean ([3]; 60 min, trihydrate): 98.50%
- Amoxicillin released in solution #1 ([3]; 60 min, trihydrate): 97.15%
- Amoxicillin released in solution #2 ([3]; 60 min, trihydrate): 99.70%
- Amoxicillin released in solution #3 ([3]; 60 min, trihydrate): 98.65%
- Amoxicillin released in solution Mean ([3]; 90 min, trihydrate): 99.31%
- Amoxicillin released in solution #1 ([3]; 90 min, trihydrate): 97.76%
- Amoxicillin released in solution #2 ([3]; 90 min, trihydrate): 99.52%
- Amoxicillin released in solution #3 ([3]; 90 min, trihydrate): 100.66%
- Average Particle Size D10 [4]: 1.9 μm
- Average Particle Size D50 [4]: 10.1 μm
- Average Particle Size D90 [4]: 23.1 μm
- Average Particle Size D100 [4]: 44.6 μm
Structure (SMILES): CC1(C)S[C@@H]2[C@H](NC(=O)[C@H](N)c3ccc(O)cc3)C(=O)N2[C@H]1C(=O)O.O.O.O [entry 4, amoxicillin trihydrate]

- Contact Angle Mean ± SD (n = 4) [1]: 71.54 ± 1.08
- Surface Area Mean ± SD (n = 3) [2]: 0.72 ± 0.16 m^2 · g^−1
- Amoxicillin released in solution Mean ([3]; 0 min): 0%
- Amoxicillin released in solution #1 ([3]; 0 min): 0%
- Amoxicillin released in solution #2 ([3]; 0 min): 0%
- Amoxicillin released in solution #3 ([3]; 0 min): 0%
- Amoxicillin released in solution Mean ([3]; 1 min, trihydrate): 59.73%
- Amoxicillin released in solution #1 ([3]; 1 min, trihydrate): 57.32%
- Amoxicillin released in solution #2 ([3]; 1 min, trihydrate): 60.63%
- Amoxicillin released in solution #3 ([3]; 1 min, trihydrate): 61.23%
- Amoxicillin released in solution Mean ([3]; 3 min, trihydrate): 97.65%
- Amoxicillin released in solution #1 ([3]; 3 min, trihydrate): 96.94%
- Amoxicillin released in solution #2 ([3]; 3 min, trihydrate): 97.25%
- Amoxicillin released in solution #3 ([3]; 3 min, trihydrate): 98.77%
- Amoxicillin released in solution Mean ([3]; 5 min, trihydrate): 99.78%
- Amoxicillin released in solution #1 ([3]; 5 min, trihydrate): 99.68%
- Amoxicillin released in solution #2 ([3]; 5 min, trihydrate): 100.87%
- Amoxicillin released in solution #3 ([3]; 5 min, trihydrate): 98.80%
- Amoxicillin released in solution Mean ([3]; 10 min, trihydrate): 99.25%
- Amoxicillin released in solution #1 ([3]; 10 min, trihydrate): 99.06%
- Amoxicillin released in solution #2 ([3]; 10 min, trihydrate): 99.42%
- Amoxicillin released in solution #3 ([3]; 10 min, trihydrate): 99.27%
- Amoxicillin released in solution Mean ([3]; 15 min, trihydrate): 100.29%
- Amoxicillin released in solution #1 ([3]; 15 min, trihydrate): 100.69%
- Amoxicillin released in solution #2 ([3]; 15 min, trihydrate): 100.64%
- Amoxicillin released in solution #3 ([3]; 15 min, trihydrate): 99.55%
- Amoxicillin released in solution Mean ([3]; 30 min, trihydrate): 99.18%
- Amoxicillin released in solution #1 ([3]; 30 min, trihydrate): 99.21%
- Amoxicillin released in solution #2 ([3]; 30 min, trihydrate): 99.18%
- Amoxicillin released in solution #3 ([3]; 30 min, trihydrate): 99.14%
- Amoxicillin released in solution Mean ([3]; 60 min, trihydrate): 100.16%
- Amoxicillin released in solution #1 ([3]; 60 min, trihydrate): 99.14%
- Amoxicillin released in solution #2 ([3]; 60 min, trihydrate): 100.41%
- Amoxicillin released in solution #3 ([3]; 60 min, trihydrate): 100.92%
- Amoxicillin released in solution Mean ([3]; 90 min, trihydrate): 99.44%
- Amoxicillin released in solution #1 ([3]; 90 min, trihydrate): 99.58%
- Amoxicillin released in solution #2 ([3]; 90 min, trihydrate): 99.28%
- Amoxicillin released in solution #3 ([3]; 90 min, trihydrate): 99.46%
- Average Particle Size D10 [4]: 13.1 μm
- Average Particle Size D50 [4]: 39.3 μm
- Average Particle Size D90 [4]: 91.7 μm
- Average Particle Size D100 [4]: 230.1 μm
Structure (SMILES): CC1(C)S[C@@H]2[C@H](NC(=O)[C@H](N)c3ccc(O)cc3)C(=O)N2[C@H]1C(=O)O.O.O.O [entry 3, amoxicillin trihydrate]
